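These data come from cells grown in 96-well plates and exposed to compound for 48 hours at five concentrations. Definition used: TGI = concentration required for complete inhibition of growth.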 The source made the active and inactive calls. No stated cut-off is given here; in the data, active means GI50 below about 0.43 µM; inactive means the rest. *1 amine or outer side, *2 acyl side, *3 side chain or, on linkers, in order; H or OH if unused. Where a SMILES comes first, the peptide text is derived from it. [ ]: non-standard residue; d: D form. The star is where a group is joined. ξ: configuration not given here. X53 = CC(C)C[C@H](N[*:1])C1=N[C@H](C(=O)[*:2])CS1; Ile(3ξ) = CCC(C)[C@H](N)C(=O)O; Allyl(1,1-Me2) = C=CC(C)(C)*
Legend:
Assay in all cases: NCI-60 cell line screen, 48 h
[1] = system: 786-0 renal
[2] = system: A498 renal
[3] = system: A549 NSCLC
[4] = system: ACHN renal
[5] = system: BT-549 breast
[6] = system: CAKI-1 renal
[7] = system: CCRF-CEM leukemia
[8] = system: COLO 205 colon
[9] = system: DU-145 prostate
[10] = system: EKVX NSCLC
[11] = system: HCC-2998 colon
[12] = system: HCT-116 colon
[13] = system: HCT-15 colon
[14] = system: HL-60(TB) leukemia
[15] = system: HOP-62 NSCLC
[16] = system: HOP-92 NSCLC
[17] = system: HS 578T breast
[18] = system: HT29 colon
[19] = system: IGROV1 ovarian
[20] = system: K-562 leukemia
[21] = system: KM12 colon
[22] = system: LOX IMVI melanoma
[23] = system: M14 melanoma
[24] = system: MALME-3M melanoma
[25] = system: MCF7 breast
[26] = system: MDA-MB-231 breast
[27] = system: MDA-MB-435
[28] = system: MDA-N
[29] = system: MOLT-4 leukemia
[30] = system: NCI-H226 lung
[31] = system: NCI-H23 lung
[32] = system: NCI-H460 lung
[33] = system: NCI-H522 lung
[34] = system: NCI/ADR-RES ovarian
[35] = system: OVCAR-3 ovarian
[36] = system: OVCAR-4 ovarian
[37] = system: OVCAR-5 ovarian
[38] = system: OVCAR-8 ovarian
[39] = system: PC-3 prostate
[40] = system: RPMI-8226 leukemia
[41] = system: RXF 393 renal
[42] = system: SF-268 CNS
[43] = system: SF-295 CNS
[44] = system: SF-539 CNS
[45] = system: SK-MEL-2 melanoma
[46] = system: SK-MEL-28 melanoma
[47] = system: SK-MEL-5 melanoma
[48] = system: SK-OV-3 ovarian
[49] = system: SN12C renal
[50] = system: SNB-19 CNS
[51] = system: SNB-75 CNS
[52] = system: SR leukemia
[53] = system: SW-620 colon
[54] = system: T-47D breast
[55] = system: TK-10 renal
[56] = system: U251 CNS
[57] = system: UACC-257 melanoma
[58] = system: UACC-62 melanoma
[59] = system: UO-31 renal

Question: Which outcome [1] does the source give for `C#CCN(Cc1cc2c(=O)[nH]c(C)nc2cc1C)c1ccc(C(=O)N[C@@H](CCc2nn[nH]n2)C(=O)O)c(F)c1` here?
Answer: inactive

Question: And the outcome [2]?
Answer: inactive

Question: What about the outcome [3] of the same molecule?
Answer: inactive

Question: What about the outcome [4] of the same molecule?
Answer: inactive

Question: And the outcome [5]?
Answer: inactive

Question: What about the outcome [6] of the same molecule?
Answer: inactive

Question: And the outcome [7]?
Answer: inactive

Question: What about the outcome [8] of the same molecule?
Answer: inactive

Question: What about the outcome [9] of the same molecule?
Answer: inactive

Question: And the outcome [10]?
Answer: inactive

Question: What about the outcome [11] of the same molecule?
Answer: inactive

Question: And the outcome [12]?
Answer: inactive

Question: What about the outcome [13] of the same molecule?
Answer: inactive

Question: What about the outcome [14] of the same molecule?
Answer: inactive

Question: What about the outcome [15] of the same molecule?
Answer: inactive

Question: And the outcome [16]?
Answer: inactive

Question: And the outcome [17]?
Answer: inactive

Question: What about the outcome [18] of the same molecule?
Answer: inactive

Question: And the outcome [19]?
Answer: inactive

Question: What about the outcome [20] of the same molecule?
Answer: inactive

Question: And the outcome [21]?
Answer: inactive

Question: And the outcome [22]?
Answer: inactive

Question: What about the outcome [23] of the same molecule?
Answer: inactive

Question: And the outcome [24]?
Answer: inactive

Question: And the outcome [25]?
Answer: inactive

Question: And the outcome [26]?
Answer: inactive

Question: What about the outcome [27] of the same molecule?
Answer: inactive

Question: What about the outcome [28] of the same molecule?
Answer: inactive

Question: What about the outcome [29] of the same molecule?
Answer: inactive

Question: And the outcome [30]?
Answer: inactive

Question: What about the outcome [31] of the same molecule?
Answer: inactive

Question: And the outcome [32]?
Answer: inactive

Question: And the outcome [33]?
Answer: inactive

Question: What about the outcome [34] of the same molecule?
Answer: inactive

Question: And the outcome [35]?
Answer: inactive

Question: And the outcome [36]?
Answer: inactive

Question: And the outcome [37]?
Answer: inactive

Question: And the outcome [38]?
Answer: inactive

Question: And the outcome [39]?
Answer: inactive

Question: What about the outcome [40] of the same molecule?
Answer: inactive

Question: What about the outcome [41] of the same molecule?
Answer: inactive

Question: And the outcome [42]?
Answer: inactive

Question: What about the outcome [43] of the same molecule?
Answer: inactive

Question: And the outcome [44]?
Answer: inactive

Question: And the outcome [45]?
Answer: inactive

Question: And the outcome [46]?
Answer: inactive

Question: What about the outcome [47] of the same molecule?
Answer: inactive

Question: What about the outcome [48] of the same molecule?
Answer: inactive

Question: What about the outcome [49] of the same molecule?
Answer: inactive

Question: What about the outcome [50] of the same molecule?
Answer: inactive

Question: What about the outcome [51] of the same molecule?
Answer: inactive

Question: What about the outcome [52] of the same molecule?
Answer: inactive

Question: What about the outcome [53] of the same molecule?
Answer: inactive

Question: And the outcome [54]?
Answer: inactive

Question: What about the outcome [55] of the same molecule?
Answer: inactive

Question: What about the outcome [56] of the same molecule?
Answer: inactive

Question: And the outcome [57]?
Answer: inactive

Question: What about the outcome [58] of the same molecule?
Answer: inactive

Question: What about the outcome [59] of the same molecule?
Answer: inactive

Question: `C=CC(C)(C)OC[C@@H]1NC(=O)CNC(=O)[C@@H]2CCCN2C(=O)[C@H](C(C)CC)NC(=O)[C@@H]2CSC(=N2)[C@H](CC(C)C)NC1=O` (stereo partly specified) (cyclo(GS(Allyl(1,1-Me2))[X53][Ile(3ξ)]P)) was tested. Which TGI [1] did it give?
Answer: > 100 µM

Question: What about the TGI [2] of the same molecule?
Answer: > 100 µM

Question: And the TGI [3]?
Answer: > 100 µM

Question: What about the TGI [4] of the same molecule?
Answer: > 100 µM

Question: And the TGI [5]?
Answer: > 100 µM

Question: What about the TGI [6] of the same molecule?
Answer: > 100 µM

Question: And the TGI [7]?
Answer: > 100 µM

Question: What about the TGI [8] of the same molecule?
Answer: > 100 µM

Question: And the TGI [9]?
Answer: > 100 µM

Question: What about the TGI [10] of the same molecule?
Answer: > 100 µM

Question: And the TGI [11]?
Answer: > 100 µM

Question: And the TGI [12]?
Answer: > 100 µM

Question: What about the TGI [13] of the same molecule?
Answer: > 100 µM

Question: And the TGI [14]?
Answer: 64.4 µM

Question: And the TGI [15]?
Answer: > 100 µM

Question: And the TGI [16]?
Answer: > 100 µM

Question: And the TGI [17]?
Answer: > 100 µM

Question: And the TGI [18]?
Answer: > 100 µM

Question: What about the TGI [19] of the same molecule?
Answer: > 100 µM

Question: And the TGI [20]?
Answer: > 100 µM

Question: What about the TGI [21] of the same molecule?
Answer: > 100 µM

Question: And the TGI [22]?
Answer: > 100 µM

Question: What about the TGI [23] of the same molecule?
Answer: > 100 µM

Question: And the TGI [24]?
Answer: > 100 µM

Question: And the TGI [25]?
Answer: > 100 µM

Question: And the TGI [26]?
Answer: > 100 µM

Question: And the TGI [27]?
Answer: > 100 µM

Question: What about the TGI [28] of the same molecule?
Answer: > 100 µM

Question: What about the TGI [29] of the same molecule?
Answer: 76.1 µM

Question: And the TGI [30]?
Answer: > 100 µM

Question: And the TGI [31]?
Answer: > 100 µM

Question: What about the TGI [32] of the same molecule?
Answer: > 100 µM

Question: And the TGI [33]?
Answer: > 100 µM

Question: What about the TGI [34] of the same molecule?
Answer: > 100 µM

Question: And the TGI [35]?
Answer: > 100 µM

Question: What about the TGI [36] of the same molecule?
Answer: > 100 µM

Question: What about the TGI [37] of the same molecule?
Answer: > 100 µM

Question: And the TGI [38]?
Answer: > 100 µM

Question: And the TGI [39]?
Answer: > 100 µM

Question: And the TGI [40]?
Answer: 94.1 µM

Question: What about the TGI [41] of the same molecule?
Answer: > 100 µM

Question: And the TGI [42]?
Answer: > 100 µM

Question: And the TGI [43]?
Answer: > 100 µM

Question: What about the TGI [44] of the same molecule?
Answer: > 100 µM

Question: What about the TGI [45] of the same molecule?
Answer: > 100 µM

Question: And the TGI [47]?
Answer: > 100 µM

Question: And the TGI [48]?
Answer: > 100 µM

Question: What about the TGI [49] of the same molecule?
Answer: > 100 µM

Question: And the TGI [50]?
Answer: > 100 µM

Question: And the TGI [51]?
Answer: > 100 µM

Question: And the TGI [52]?
Answer: > 100 µM

Question: And the TGI [54]?
Answer: > 100 µM

Question: What about the TGI [55] of the same molecule?
Answer: > 100 µM

Question: And the TGI [56]?
Answer: > 100 µM

Question: And the TGI [57]?
Answer: > 100 µM

Question: And the TGI [58]?
Answer: > 100 µM

Question: What about the TGI [59] of the same molecule?
Answer: > 100 µM
